Counter-ions that a name gives are not always drawn.
molecular target: SHP2 (Homo sapiens (Human), UniProt Q06124); assay: SHP2 Allosteric Inhibition Assay (DiFMUP prompt fluorescence); type: biochemical; conditions: 0.25 nM SHP2 activated with 0.5 μM peptide IRS1_pY1172(dPEG8)pY1222; substrate DiFMUP 100 μM; 25° C.
Sequence (Q06124 whole entry): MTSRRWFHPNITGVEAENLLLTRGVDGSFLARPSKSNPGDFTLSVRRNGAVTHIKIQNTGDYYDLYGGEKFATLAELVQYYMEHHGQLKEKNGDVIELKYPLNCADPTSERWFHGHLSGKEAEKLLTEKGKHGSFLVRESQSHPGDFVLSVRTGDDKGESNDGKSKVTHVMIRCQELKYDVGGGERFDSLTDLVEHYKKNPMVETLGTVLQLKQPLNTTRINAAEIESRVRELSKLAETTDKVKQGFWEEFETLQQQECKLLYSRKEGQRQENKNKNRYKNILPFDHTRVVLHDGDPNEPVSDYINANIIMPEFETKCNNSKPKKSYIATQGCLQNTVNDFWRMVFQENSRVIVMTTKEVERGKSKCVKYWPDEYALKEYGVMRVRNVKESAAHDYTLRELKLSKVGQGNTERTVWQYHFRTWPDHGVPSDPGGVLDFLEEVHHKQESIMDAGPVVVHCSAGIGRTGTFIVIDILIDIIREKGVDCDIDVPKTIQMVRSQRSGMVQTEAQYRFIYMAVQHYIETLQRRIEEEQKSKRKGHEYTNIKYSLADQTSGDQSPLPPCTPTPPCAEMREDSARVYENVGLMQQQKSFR

Cn1nc(Sc2ccncc2)c2ncc(N3CCC(C)(N)CC3)nc21 [Cmpd 487] and Cn1ccnc1Sc1n[nH]c2nc(N3CCC(C)(N)CC3)cnc12 [Compound 14, 4-methyl-1-(3-((1-methyl-1H-imidazol-2-yl)thio)-1H-pyrazolo[3,4-b]pyrazin-6-yl)piperidin-4-amine] cannot be ordered by IC50: no less than 10000 nM for the first, no less than 10000 nM for the second.

Going from CC1CNCC(Sc2n[nH]c3nc(N4CCC(C)(N)CC4)cnc23)C1 (centres unmarked) [Cmpd 490] to CC1(N)CCN(c2cnc3c(Sc4cccc(Cl)c4Cl)n[nH]c3n2)CC1 [Compound 13, 1-(3-((2,3-dichlorophenyl)thio)-1H-pyrazolo[3,4-b]pyrazin-6-yl)-4-methylpiperidin-4-amine], the IC50 falls from no less than 10000 nM to less than 1000 nM. The second is the more potent here.

CC1(CN)CCN(c2cnc3c(Sc4ccccc4)n[nH]c3n2)CC1 [Compound 7, (4-methyl-1-(3-(phenylthio)-1H-pyrazolo[3,4-b]pyrazin-6-yl)piperidin-4-yl)methanamine] and CC1(CN)CCN(c2cnc3c(Sc4ccccc4Cl)n[nH]c3n2)CC1 [Compound 9, (1-(3-((2-chlorophenyl)thio)-1H-pyrazolo[3,4-b]pyrazin-6-yl)-4-methylpiperidin-4-yl)methanamine] cannot be ordered by IC50: less than 1000 nM for the first, less than 1000 nM for the second.

CC1(N)CCN(c2cnc3c(Sc4cccnc4C(F)(F)F)n[nH]c3n2)CC1 [Compound 8, 4-methyl-1-(3-((2-(trifluoromethyl)pyridin-3-yl)thio)-1H-pyrazolo[3,4-b]pyrazin-6-yl)piperidin-4-amine] and CC1(N)CCN(c2cnc3c(Sc4ccccc4C#N)n[nH]c3n2)CC1 [Compound 10, 2-((6-(4-amino-4-methylpiperidin-1-yl)-1H-pyrazolo[3,4-b]pyrazin-3-yl)thio)benzonitrile] cannot be ordered by IC50: less than 1000 nM for the first, less than 1000 nM for the second.

CC1(CN)CCN(c2cnc3c(Nc4ccccc4Cl)n[nH]c3n2)CC1 [Compound 11, 6-(4-(aminomethyl)-4-methylpiperidin-1-yl)-N-(2-chlorophenyl)-1H-pyrazolo[3,4-b]pyrazin-3-amine] and C=C(c1ccccc1)c1n[nH]c2nc(N3CCC(C)(CN)CC3)cnc12 [Compound 16, (4-methyl-1-(3-(1-phenylvinyl)-1H-pyrazolo[3,4-b]pyrazin-6-yl)piperidin-4-yl)methanamine] cannot be ordered by IC50: less than 1000 nM for the first, less than 1000 nM for the second.

Compared with CC1(N)CCN(c2cnc3c(Nc4cccnc4Cl)n[nH]c3n2)CC1 [Compound 12, 6-(4-amino-4-methylpiperidin-1-yl)-N-(2-chloropyridin-3-yl)-1H-pyrazolo[3,4-b]pyrazin-3-amine], CC1(N)CCN(c2cnc3c(N4CCOc5ncccc54)n[nH]c3n2)CC1 [Compound 31] is lower in IC50: 1000 to 10000 nM for the first, less than 1000 nM for the second. The second is the more potent here.

CC1(CN)CCN(c2cnc3c(Cc4ccccc4)n[nH]c3n2)CC1 [Compound 15, (1-(3-benzyl-1H-pyrazolo[3,4-b]pyrazin-6-yl)-4-methylpiperidin-4-yl)methanamine] and CC(c1ccccc1)c1n[nH]c2nc(N3CCC(C)(CN)CC3)cnc12 (centres unmarked) [Compound 17, (4-methyl-1-(3-(1-phenylethyl)-1H-pyrazolo[3,4-b]pyrazin-6-yl)piperidin-4-yl)methanamine] fall in the same range of IC50: 1000 to 10000 nM for the first, 1000 to 10000 nM for the second.

CC1(CN)CCN(c2cnc3c(C(=O)c4ccccc4)n[nH]c3n2)CC1 [Compound 18, (6-(4-(aminomethyl)-4-methylpiperidin-1-yl)-1H-pyrazolo[3,4-b]pyrazin-3-yl)(phenyl)methanone] and CC1(CN)CCN(c2cnc3c(C(C)(O)c4ccccc4)n[nH]c3n2)CC1 (centres unmarked) [Compound 19, 1-(6-(4-(aminomethyl)-4-methylpiperidin-1-yl)-1H-pyrazolo[3,4-b]pyrazin-3-yl)-1-phenylethanol] fall in the same range of IC50: 1000 to 10000 nM for the first, 1000 to 10000 nM for the second.

Compared with CC1(N)CCN(c2cnc3c(-n4cnc5ccccc54)n[nH]c3n2)CC1 [Compound 20, 1-(3-(1H-benzo[d]imidazol-1-yl)-1H-pyrazolo[3,4-b]pyrazin-6-yl)-4-methylpiperidin-4-amine], CC1(N)CCN(c2cnc3c(N4CCc5ccccc54)n[nH]c3n2)CC1 [Compound 21] is lower in IC50: 1000 to 10000 nM for the first, less than 1000 nM for the second. The second is the more potent here.

Going from CC1(N)CCN(c2cnc3c(N4CCCn5nccc54)n[nH]c3n2)CC1 [Compound 22] to CC1(N)CCN(c2cnc3c(N4CCCn5c4cccc5=O)n[nH]c3n2)CC1 [Compound 43], the IC50 rises from less than 1000 nM to no less than 10000 nM.

Compared with CC1(CN)CCN(c2cnc3c(N4CCCc5ncccc54)n[nH]c3n2)C1 (centres unmarked) [Compound 26, (1-(3-(3,4-dihydro-1,5-naphthyridin-1(2H)-yl)-1H-pyrazolo[3,4-b]pyrazin-6-yl)-3-methylpyrrolidin-3-yl)methanamine dihydrochloride], CC1(CN)CCN(c2cnc3c(N4CCCc5cccnc54)n[nH]c3n2)CC1 [Compound 40] is higher in IC50: less than 1000 nM for the first, 1000 to 10000 nM for the second.

CC1(N)CCN(c2cnc3c(N4CCCc5ccncc54)n[nH]c3n2)CC1 [Compound 27] and CC1(N)CCN(c2cnc3c(N4CCCc5cnccc54)n[nH]c3n2)CC1 [Compound 30] cannot be ordered by IC50: no less than 10000 nM for the first, 1000 to 10000 nM for the second.

First: CC1(N)CCN(c2cnc3c(N4CCNc5ccccc54)n[nH]c3n2)CC1 [Compound 29]
Second: CC1(N)CCN(c2cnc3c(N4CCC(=O)c5ccccc54)n[nH]c3n2)CC1 [Compound 32]
The IC50 of the first is higher: 1000 to 10000 nM for the first, less than 1000 nM for the second.

Compared with CC1(CN)CCN(c2cnc3c(N4CCCc5ccccc54)n[nH]c3n2)CC1 [Compound 33, (1-(3-(3,4-dihydroquinolin-1(2H)-yl)-1H-pyrazolo[3,4-b]pyrazin-6-yl)-4-methylpiperidin-4-yl)methanamine], Cc1ccc2c(c1)N(c1n[nH]c3nc(N4CCC(C)(CN)CC4)cnc13)CCC2 [Compound 44] is higher in IC50: less than 1000 nM for the first, 1000 to 10000 nM for the second. The first is the more potent here.

CC1CCc2ccccc2N1c1n[nH]c2nc(N3CCC(C)(N)CC3)cnc12 (centres unmarked) [Compound 34] and C[C@H]1CCc2ccccc2N1c1n[nH]c2nc(N3CCC(C)(N)CC3)cnc12 [Compound 35] cannot be ordered by IC50: less than 1000 nM for the first, less than 1000 nM for the second.

C[C@@H]1CCc2ccccc2N1c1n[nH]c2nc(N3CCC(C)(N)CC3)cnc12 [Compound 36] and CC1Cc2ccccc2N(c2n[nH]c3nc(N4CCC(C)(N)CC4)cnc23)C1 (centres unmarked) [Compound 38] fall in the same range of IC50: 1000 to 10000 nM for the first, 1000 to 10000 nM for the second.

CC1(N)CCN(c2cnc3c(N4C(=O)CCc5ncccc54)n[nH]c3n2)CC1 [Compound 39, 1-(6-(4-amino-4-methylpiperidin-1-yl)-1H-pyrazolo[3,4-b]pyrazin-3-yl)-3,4-dihydro-1,5-naphthyridin-2(1H)-one] and CC1(N)CCN(c2cnc3c(N4CCCc5c4ccnc5N)n[nH]c3n2)CC1 [Compound 42, 1-(6-(4-amino-4-methylpiperidin-1-yl)-1H-pyrazolo[3,4-b]pyrazin-3-yl)-1,2,3,4-tetrahydro-1,6-naphthyridin-5-amine] fall in the same range of IC50: 1000 to 10000 nM for the first, 1000 to 10000 nM for the second.

Cc1ccc2c(c1)CCCN2c1n[nH]c2nc(N3CCC(C)(CN)CC3)cnc12 [Compound 45] and CC1(CN)CCN(c2cnc3c(N4CCCc5cc(C(N)=O)ccc54)n[nH]c3n2)CC1 [Compound 58, 1-(6-(4-(aminomethyl)-4-methylpiperidin-1-yl)-1H-pyrazolo[3,4-b]pyrazin-3-yl)-1,2,3,4-tetrahydroquinoline-6-carboxamide] cannot be ordered by IC50: less than 1000 nM for the first, less than 1000 nM for the second.

Cc1cccc2c1CCCN2c1n[nH]c2nc(N3CCC(C)(CN)CC3)cnc12 [Compound 46] and CC1(CN)CCN(c2cnc3c(N4CCCc5c(F)cccc54)n[nH]c3n2)CC1 [Compound 52] cannot be ordered by IC50: less than 1000 nM for the first, less than 1000 nM for the second.

Compared with CC1(N)CCN(c2cnc3c(N4CCCC(c5ccccc5)C4)n[nH]c3n2)CC1 (centres unmarked) [Compound 47], CC(=O)N1CCN(c2n[nH]c3nc(N4CCC(C)(N)CC4)cnc23)c2ccccc21 [Compound 56] is lower in IC50: 1000 to 10000 nM for the first, less than 1000 nM for the second.

CC1CCN(c2n[nH]c3nc(N4CCC(C)(CN)CC4)cnc23)c2ccccc21 (centres unmarked) [Compound 48] and C[C@@H]1CCN(c2n[nH]c3nc(N4CCC(C)(CN)CC4)cnc23)c2ccccc21 [Compound 49, (R)-(4-methyl-1-(3-(4-methyl-3,4-dihydroquinolin-1(2H)-yl)-1H-pyrazolo[3,4-b]pyrazin-6-yl)piperidin-4-yl)methanamine] cannot be ordered by IC50: less than 1000 nM for the first, less than 1000 nM for the second.

C[C@H]1CCN(c2n[nH]c3nc(N4CCC(C)(CN)CC4)cnc23)c2ccccc21 [Compound 50, (S)-(4-methyl-1-(3-(4-methyl-3,4-dihydroquinolin-1(2H)-yl)-1H-pyrazolo[3,4-b]pyrazin-6-yl)piperidin-4-yl)methanamine] and COc1cccc2c1CCCN2c1n[nH]c2nc(N3CCC(C)(CN)CC3)cnc12 [Compound 57] cannot be ordered by IC50: less than 1000 nM for the first, less than 1000 nM for the second.

CC1(CN)CCN(c2cnc3c(N4CCCc5nc(N)ccc54)n[nH]c3n2)CC1 [Compound 51, 5-(6-(4-(aminomethyl)-4-methylpiperidin-1-yl)-1H-pyrazolo[3,4-b]pyrazin-3-yl)-5,6,7,8-tetrahydro-1,5-naphthyridin-2-amine] and CC1(CN)CCN(c2cnc3c(N4CCCc5cc(C(F)(F)F)ccc54)n[nH]c3n2)CC1 [Compound 63] cannot be ordered by IC50: less than 1000 nM for the first, less than 1000 nM for the second.

NC1CCCC12CCN(c1cnc3c(N4CCCc5ncccc54)n[nH]c3n1)CC2 (centres unmarked) [Compound 53, 8-(3-(3,4-dihydro-1,5-naphthyridin-1(2H)-yl)-1H-pyrazolo[3,4-b]pyrazin-6-yl)-8-azaspiro[4.5]decan-1-amine] and NC1CCOC12CCN(c1cnc3c(N4CCCc5ncccc54)n[nH]c3n1)CC2 (centres unmarked) [Compound 55, 8-(3-(3,4-dihydro-1,5-naphthyridin-1(2H)-yl)-1H-pyrazolo[3,4-b]pyrazin-6-yl)-1-oxa-8-azaspiro[4.5]decan-4-amine] cannot be ordered by IC50: less than 1000 nM for the first, less than 1000 nM for the second.

CC1(N)CCN(c2cnc3c(N4CCCc5cc(C(N)=O)ccc54)n[nH]c3n2)CC1 [Compound 54, 1-(6-(4-amino-4-methylpiperidin-1-yl)-1H-pyrazolo[3,4-b]pyrazin-3-yl)-1,2,3,4-tetrahydroquinoline-6-carboxamide] and CC1(N)CCN(c2cnc3c(N4CCCc5c(-c6cccnc6)cccc54)n[nH]c3n2)CC1 [Compound 60] cannot be ordered by IC50: less than 1000 nM for the first, less than 1000 nM for the second.

CC1(N)CCN(c2cnc3c(N4CCCc5c(-c6ccccn6)cccc54)n[nH]c3n2)CC1 [Compound 59] and Cn1cc(-c2cccc3c2CCCN3c2n[nH]c3nc(N4CCC(C)(N)CC4)cnc23)cn1 [Compound 61] cannot be ordered by IC50: less than 1000 nM for the first, less than 1000 nM for the second.

Compound Cn1cc(-c2ccc3c(n2)CCCN3c2n[nH]c3nc(N4CCC(C)(N)CC4)cnc23)cn1 [Compound 62] has an IC50 of less than 1000 nM.

From patent publication US11591336B2 (Relay Therapeutics, Inc., priority 2017, dated 2023)
